In patent US12304912B2, “Fused bicyclic RAF inhibitors and methods for use thereof” (Jazz Pharmaceuticals Ireland Limited, priority 2020, dated 2025):
Where two headings read alike, the source gives them in different places.

Key:
[1] = system: constitutive ERK phosphorylation in WiDr cells; test: WiDr AlphaLISA SureFire pERK1/2 cellular assay; format: cell-based, human; settings: Homo sapiens, read-out: pERK WiDr (2 hr) Abs pIC50 (converted)
Protocol: The human HCT-116 colorectal carcinoma cell line (ATCC CCL-247) endogenously expresses the KRAS^G13D mutation, which leads to constitutive activation of the MAP kinase pathway and phosphorylation of ERK. […] Assay read outs took place 2 or 24 hours after dosing with compounds. On the first day, HCT-116 cells were harvested, resuspended in growth medium (McCoys5A with Glutamax (Life Technologies 36600021) and 10% heat-inactivated fetal bovine serum (Sigma F9665)), and counted. Cells were plated in 100 μl per well in each well of a 96-well culture dish (Sigma CLS3598) to a final density of 30,000 (2 hr read) or 15,000 (24 hr read) cells per well and incubated over night at 37° C. and 5% CO2. On day 2, the growth medium was exchanged for dosing medium (McCoys5A with Glutamax (Life Technologies 36600021) and 1% heat-inactivated fetal bovine serum (Sigma F9665)) and the cells were dosed with compounds to produce a 10-point dose response, where the top concentration was 1 μM and subsequent concentrations were at 1/3 log dilution intervals. A matched DMSO control was included. The cells were subsequently incubated for either 2 or 24 hours at 37° C. and 5% CO2. After incubation, media was removed and the cells were incubated with lysis buffer containing phosphatase inhibitors for 15 minutes at room temperature. Cell lysates were transferred to a 12 area 96 well white Optiplate™ (Perkin Elmer 6005569) and incubated with anti-mouse IgG acceptor beads, a biotinylated anti-ERK1/2 rabbit antibody recognizing both phosphorylated and non-phosphorylated ERK1/2, a mouse antibody targeted to the Thr202/Tyr204 epitope and recognizing phosphorylated ERK proteins only, and streptavidin-coated donor beads. The biotinylated antibody binds to the streptavidin-coated donor beads and the phopsho-ERK1/2 antibody binds to the acceptor beads. Plates were read on an EnVision reader (Perkin Elmer) and excitation of the beads at 680 nm with a laser induced the release of singlet oxygen molecules from the donor beads that trigger energy transfer to the acceptor beads in close proximity, producing a signal that can be measured at […]. Both antibodies bound to phosphorylated ERK proteins, bringing the donor and acceptor beads into close proximity. All data were analyzed using the Dotmatics or GraphPad Prism software packages. Inhibition of ERK phosphorylation was assessed by determination of the absolute IC50 value, which is defined as the concentration of compound required to decrease the level of phosphorylated ERK proteins by 50% when compared to DMSO control.
WiDr AlphaLISA SureFire pERK1/2 Cellular Assay
The human WiDr colorectal adenocarcinoma cell line (ATCC CCL-218) endogenously expresses the BRAF^V600E mutation, which leads to constitutive activation of the MAP kinase pathway and phosphorylation of ERK. […] The main procedure is essentially the same as for HCT-116 cells (above), with the following adjustments to the growth medium (Eagle's Minimum Essential Medium (Sigma M2279) with 1× Glutamax (Life Technologies 35050038), 1× Sodium-Pyruvate (Sigma S8636), and 10% heat-inactivated fetal bovine serum (Sigma F9665)), the dosing medium (Eagle's Minimum Essential Medium (Sigma M2279) with 1× Glutamax (Life Technologies 35050038), 1× Sodium-Pyruvate (Sigma S8636), and 1% heat-inactivated fetal bovine serum (Sigma F9665)), and the seeding densities (2 hr: 50,000 cells per well; 24 hr: 35,000 cells per well). Moreover, the compounds were dosed in 1/2 log dilution intervals with the top concentration of 10 μM.

[2] = Microsomal stability assay, mouse liver microsomes (MLM); format: in vitro ADME; settings: 0.5 mg/mL protein, 1 μM substrate
Summary of the method: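 Half-life and CLint come from the ln(% remaining)–time slope, with remaining compound quantified by LC-MS/MS after ice-cold solvent quench of timed samples. Incubations used 1 μM test compound and 0.5 mg·mL^−1 human or mouse liver microsomal protein at 37° C.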

[3] = system: RAF dimers in HCT-116 cells; test: HCT-116 AlphaLISA SureFire pERK1/2 cellular assay (dimer); format: cell-based; settings: Homo sapiens, HCT-116, 1 hr
Summary of the method: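 HCT-116 (KRAS G13D) cells, 30,000/well, pretreated 1 h with 1 μM Encorafenib to induce RAF dimers, washed, then dosed 1 h at 37° C with compound (10-point, top 10 μM, 1/2 log steps) in growth medium. pERK1/2 (T202/Y204) measured by AlphaLISA SureFire; absolute IC50 versus DMSO control.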

[4] = HCT116 cells, dimer, read-out: pERK HCT116 dimer (1 hr) plC50 (converted)
[5] = WiDr cells, 2 hr, absolute IC50
[6] = HCT116 cells pre-dosed with 1 μM Encorafenib, read-out: pERK HCT116 dimer (1 hr) pIC50 (converted)

Compound | IC50 ([1]; WiDr, 2 h) [nM] | microsomal CLint at 1 μM ([2]; 37° C.) [µL/min/mg] | IC50 [3, 4] [nM] | IC50 [1, 5] [nM] | microsomal CLint at 1 μM [2] [µL/min/mg] | IC50 [3, 6] [nM] | IC50 ([1]; WiDr cells, 2 hr, Abs) [nM]
O=C(Nc1cc(Oc2ccc3c(c2)CC(c2nc(-c4ccccc4)c[nH]2)CO3)ncn1)C1CC1 (stereo not drawn) [Compound 151, N-[6-[3-(4-phenyl-1H-imidazol-2-yl)chroman-6-yl]oxypyrimidin-4-yl]cyclopropanecarboxamide] | 224 | 161 | 204 |  |  |  | 
N#Cc1ccc2[nH]c(C3COc4ccc(Oc5ccnc6c5CCC(=O)N6)cc4C3)nc2c1 (stereo not drawn) [Compound 24] |  |  |  | 501 | 41.6 | 155 | 
O=C1CCc2c(Oc3ccc4c(c3)CC(c3nc5cc(F)c(F)cc5[nH]3)CO4)ccnc2N1 (stereo not drawn) [Compound 23] |  |  |  | 229 | 30.5 | 224 | 
O=C1CCc2c(Oc3ccc4c(c3)CN(c3nc5cc(C(F)(F)F)ccc5[nH]3)CC4)ccnc2N1 [Compound 160] |  | 4.5 | 347 |  |  |  | 219
O=C(CN1CCOCC1)Nc1cc(Oc2ccc3c(c2)CC(c2nc(-c4ccccc4)c[nH]2)CO3)ccn1 (stereo not drawn) [Compound 149] |  | 231 | 363 |  |  |  | 933
Cn1ncc2ccc(-c3c[nH]c(C4COc5ccc(Oc6ccnc7c6CCC(=O)N7)cc5C4)n3)cc21 (stereo not drawn) [Compound 130, 5-[3-[4-(1-methylindazol-6-yl)-1H-imidazol-2-yl]chroman-6-yl]oxy-3,4-dihydro-1H-1,8-naphthyridin-2-one] |  | 23.5 | 166 |  |  |  | 603
O=C(Cn1cncn1)Nc1cc(Oc2ccc3c(c2)CC(c2nc(-c4ccccc4)c[nH]2)CO3)ccn1 (stereo not drawn) [Compound 154] |  | 95.2 | 38 |  |  |  | 33.1
O=C(Cn1ccnc1)Nc1cc(Oc2ccc3c(c2)CC(c2nc(-c4ccccc4)c[nH]2)CO3)ccn1 (stereo not drawn) [Compound 144] |  | 29.3 | 60.3 |  |  |  | 95.5
COc1cc(-c2c[nH]c(C3COc4ccc(Oc5ccnc6c5CCC(=O)N6)cc4C3)n2)ccn1 (stereo not drawn) [Compound 19, 5-[3-[4-(2-methoxy-4-pyridyl)-1H-imidazol-2-yl]chroman-6-yl]oxy-3,4-dihydro-1H-1,8-naphthyridin-2-one] |  |  |  | 1100 | 23 | 347 | 
Cc1c[nH]c(-c2cc(Oc3ccc4c(c3)CC(c3nc(-c5ccccc5)c[nH]3)CO4)ccn2)n1 (stereo not drawn) [Compound 143, 2-(4-methyl-1H-imidazol-2-yl)-4-[3-(4-phenyl-1H-imidazol-2-yl)chroman-6-yl]oxy-pyridine] |  | 86.1 | 575 |  |  |  | 302
O=C1CCc2c(Oc3ccc4c(c3)CC(c3nc5cc(Cl)ccc5[nH]3)CO4)ccnc2N1 (stereo not drawn) [Compound 25] |  |  |  | 129 | 48.5 | 115 | 
O=C1CCc2c(Oc3ccc4c(c3)CC(c3nc(-c5cccc(C(F)(F)F)c5)c[nH]3)CO4)ccnc2N1 (stereo not drawn) [Compound 12, 5-[3-[4-[3-(trifluoromethyl)phenyl]-1H-imidazol-2-yl]chroman-6-yl]oxy-3,4-dihydro-1H-1,8-naphthyridin-2-one] |  |  |  | 123 | 15.7 | 229 | 
Cc1cc2nc(C3COc4ccc(Oc5ccnc6c5CCC(=O)N6)cc4C3)[nH]c2cc1C (stereo not drawn) [Compound 29] |  |  |  | 107 | 77.6 | 219 | 
O=C1CCc2c(Oc3ccc4c(c3)CC(c3nc5ccncc5[nH]3)CO4)ccnc2N1 (stereo not drawn) [Compound 134, 5-[3-(3H-imidazo[4,5-c]pyridin-2-yl)chroman-6-yl]oxy-3,4-dihydro-1H-1,8-naphthyridin-2-one] |  | 72.4 | 32.4 |  |  |  | 6170
